Results as given in patent publication US12123010B2, “Plants having increased tolerance to herbicides” (BASF SE, priority 2017, dated 2024).
Where “and” joins values, the source holds several entries; their conditions need not be identical. Identical values can stand only once.

Tests used:
[1] = target: Wild Type PPO Enzyme (Amaranthus PPO2, SEQ ID NO: 1) (Amaranthus tuberculatus, UniProt Q0NZW9); assay: PPO enzyme assay (recombinant), wild type; format: biochemical
[2] = system: Variant PPO Enzyme R128A, F420V (Amaranthus PPO2); assay: biochemical; format: biochemical; conditions: variant R128A, F420V vs wild type
[3] = system: Variant PPO Enzyme R128A, F420M (Amaranthus PPO2); format: biochemical; conditions: variant R128A, F420M vs wild type
[4] = system: Variant PPO Enzyme F420M (Amaranthus PPO2); assay: biochemical; format: biochemical; conditions: variant F420M vs wild type
[5] = system: Transgenic T2 Arabidopsis plants harboring PPO inhibitor tolerance trait; assay: Lab based germination assay in 48-well plates (Table i); format: in vivo, Arabidopsis thaliana; conditions: construct AMATU_PPO2_TP_hemG (Escherichia coli); in comparison to wild type plants
[6] = system: Transgenic T2 Arabidopsis plants and ARBTH WT MC24 non-transgenic; assay: Greenhouse post spray test, injury 14 DAT (Tables ii, iii); format: in vivo, Arabidopsis thaliana; conditions: for pest or weed control at 50 g/ha / pest or weed control at 100 g/ha / pest or weed control at 200 g/ha / pest or weed control at 1 g/ha / pest or weed control at 5 g/ha / pest or weed control at 10 g/ha / pest or weed control at 30 g/ha / pest or weed control at 80 g/ha: Arabidopsis thaliana, 336 h;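 for all read-outs here: value is percent injury to the sprayed plants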
[7] = system: Transgenic T2 Corn plants harbouring PPO inhibitor tolerance trait and J553 non transgenic; assay: Corn Trial, post spray, injury score 14 DAT; format: in vivo
Method: Immature embryos are transformed according to the procedure outlined in Peng et al. (WO2006/136596). Plants are tested for the presence of the T-DNA by Taqman analysis with the target being the nos terminator which is present in all constructs. Healthy looking plants are sent to the greenhouse for hardening and subsequent spray testing. The plants are individually transplanted into MetroMix 360 soil in 4″ pots. Once in the greenhouse (day/night cycle of 27° C./21° C. with 14 hour day length supported by 600 W high pressure sodium lights), they are allowed to grow for 14 days. TO or T1 plants are sprayed with a treatment of the uracilpyridines as disclosed SUPRA and photosynthesis inhibitor diuron as negative control. Herbicide injury evaluations are taken at 7, 14 and 21 days after treatment. Herbicide injury evaluations are taken 2, 7, 14 and 21 days post-spray to look for injury to new growth points and overall plant health. The top survivors are transplanted into gallon pots filled with MetroMix 360 for seed production.
(§1) Transgenic T2 Corn plants harbouring PPO inhibitor tolerance trait, were sprayed post with the indicated amount of uracilpyridine+1% (v/v) MSO. Evaluation performed 14 Days After Treatment (DAT) and shown as injury (0-9) relative to non-transgenic treated plants.
Injury Scale: 0-9, 0=no injury, 9=maximum injury. Note: segregating lines.

[8] = system: Transgenic T2 or T3 Soybean plants harbouring PPO inhibitor tolerance trait; assay: Soybean Trial, post spray, injury score 14 DAT; format: in vivo
Method: Soybean cv Jake is transformed as previously described by Siminszky et al., Phytochem Rev. 5:445-458 (2006). After regeneration, transformants are transplanted to soil in small pots, placed in growth chambers (16 hr day/8 hr night; 25° C. day/23° C. night; 65% relative humidity; 130-150 microE m-2 s-1) and subsequently tested for the presence of the T-DNA via Taqman analysis. After a few weeks, healthy, transgenic positive, single copy events are transplanted to larger pots and allowed to grow in the growth chamber. An optimal shoot for cutting is about 3-4 inches tall, with at least two nodes present. Each cutting is taken from the original transformant (mother plant) and dipped into rooting hormone powder (indole-3-butyric acid, IBA). The cutting is then placed in oasis wedges inside a bio-dome. The mother plant is taken to maturity in the greenhouse and harvested for seed. Wild type cuttings are also taken simultaneously to serve as negative controls. The cuttings are kept in the bio-dome for 5-7 days and then transplanted to 3 inch pots and then acclimated in the growth chamber for two more days. Subsequently, the cuttings are transferred to the greenhouse, acclimated for approximately 4 days prior to spray. T0 or 2-week old T1 plants are sprayed with a treatment of the uracilpyridines as disclosed SUPRA and photosynthesis inhibitor diuron as negative control. Herbicide injury evaluations are taken at 2, 7, 14 and 21 days after treatment.
as §1, with “or T3 Soybean” for “Corn”, “plants. Injury Scale: 0-9, 0=no imjury, 9=maximum injury. Note: segregating lines.” for “plants.”

[9] = Table iii, ALOMY_PPO2_R137L_F438M (unnamed lines), 50 g ai/ha
[10] = Table iii, ALOMY_PPO2_R137L_F438M (unnamed lines), 100 g ai/ha

Chain of Wild Type PPO Enzyme (Amaranthus PPO2, SEQ ID NO: 1) (Q0NZW9 1-534): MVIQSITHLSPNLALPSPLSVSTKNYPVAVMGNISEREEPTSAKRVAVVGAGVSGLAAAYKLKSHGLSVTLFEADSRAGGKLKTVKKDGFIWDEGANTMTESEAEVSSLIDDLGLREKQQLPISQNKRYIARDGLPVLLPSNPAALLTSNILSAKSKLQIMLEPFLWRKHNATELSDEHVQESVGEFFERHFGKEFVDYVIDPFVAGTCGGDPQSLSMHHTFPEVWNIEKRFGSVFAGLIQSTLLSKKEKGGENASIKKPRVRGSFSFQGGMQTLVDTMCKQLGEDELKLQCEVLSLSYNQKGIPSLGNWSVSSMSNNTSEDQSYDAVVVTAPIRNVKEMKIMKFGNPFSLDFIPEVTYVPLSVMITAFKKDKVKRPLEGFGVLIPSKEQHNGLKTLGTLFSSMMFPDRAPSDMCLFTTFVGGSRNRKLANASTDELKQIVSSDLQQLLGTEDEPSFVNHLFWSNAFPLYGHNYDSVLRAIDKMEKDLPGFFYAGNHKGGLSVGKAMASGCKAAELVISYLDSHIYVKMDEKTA

With `CCOC(=O)COc1ccccc1Oc1nc(-n2c(=O)cc(C(F)(F)F)n(C)c2=O)c(F)cc1Cl` [Uracilpyridine 4, ethyl 2-[2-[[3-chloro-5-fluoro-6-[3-methyl-2,6-dioxo-4-(trifluoromethyl)pyrimidin-1-yl]-2-pyridyl]oxy]phenoxy]acetate] the IC50 [1] was 0.173 nM, the “Tolerance Factor (R/S)” value [2] was 1718 and the “Tolerance Factor (R/S)” value [3] was 401. For the same molecule, the “Tolerance Factor (R/S)” value [4] was 55, the “Tolerance Factor” value [5] was 810000 and the pest or weed control at 50 g/ha ([6]; Table ii, ALOMY_PPO2_R137L_F438V event F, 50 g ai/ha) was 8%. The pest or weed control at 100 g/ha ([6]; Table ii, ALOMY_PPO2_R137L_F438V event F, 100 g ai/ha) was 20%, the pest or weed control at 200 g/ha ([6]; Table ii, ALOMY_PPO2_R137L_F438V event F, 200 g ai/ha) was 20% and the pest or weed control at 50 g/ha ([6]; Table ii, ALOMY_PPO2_R137L_F438V event G, 50 g ai/ha) was 8%. It also gave a pest or weed control at 100 g/ha ([6]; Table ii, ALOMY_PPO2_R137L_F438V event G, 100 g ai/ha) of 15%, a pest or weed control at 200 g/ha ([6]; Table ii, ALOMY_PPO2_R137L_F438V event G, 200 g ai/ha) of 8% and a pest or weed control at 50 g/ha ([6]; Table ii, ALOMY_PPO2_TP_AMATU_PPO2_R128M_F420I event R, 50 g ai/ha) of 40%. For the same molecule, the pest or weed control at 100 g/ha ([6]; Table ii, ALOMY_PPO2_TP_AMATU_PPO2_R128M_F420I event R, 100 g ai/ha) was 60%, the pest or weed control at 200 g/ha ([6]; Table ii, ALOMY_PPO2_TP_AMATU_PPO2_R128M_F420I event R, 200 g ai/ha) was 80% and the pest or weed control at 50 g/ha ([6]; Table ii, AMATU_PPO2_R128A_F420M event Q, 50 g ai/ha) was 55%. The pest or weed control at 100 g/ha ([6]; Table ii, AMATU_PPO2_R128A_F420M event Q, 100 g ai/ha) was 60%, the pest or weed control at 200 g/ha ([6]; Table ii, AMATU_PPO2_R128A_F420M event Q, 200 g ai/ha) was 60% and the pest or weed control at 50 g/ha ([6]; Table ii, AMATU_PPO2_R128M_F420I event K, 50 g ai/ha) was 30%. For the same molecule, the pest or weed control at 100 g/ha ([6]; Table ii, AMATU_PPO2_R128M_F420I event K, 100 g ai/ha) was 58%, the pest or weed control at 200 g/ha ([6]; Table ii, AMATU_PPO2_R128M_F420I event K, 200 g ai/ha) was 73% and the pest or weed control at 50 g/ha ([6]; Table ii, AMATU_PPO2_TP_hemG event R, 50 g ai/ha) was 30%. The pest or weed control at 100 g/ha ([6]; Table ii, AMATU_PPO2_TP_hemG event R, 100 g ai/ha) was 38%, the pest or weed control at 200 g/ha ([6]; Table ii, AMATU_PPO2_TP_hemG event R, 200 g ai/ha) was 65% and the pest or weed control at 1 g/ha ([6]; Table ii, AMATU_PPO2_WT event Q, 1 g ai/ha) was 25%. For the same molecule, the pest or weed control at 5 g/ha ([6]; Table ii, AMATU_PPO2_WT event Q, 5 g ai/ha) was 88%, the pest or weed control at 10 g/ha ([6]; Table ii, AMATU_PPO2_WT event Q, 10 g ai/ha) was 100% and the pest or weed control at 30 g/ha ([6]; Table ii, AMATU_PPO2_WT event Q, 30 g ai/ha) was 100%. For the same molecule, the pest or weed control at 1 g/ha ([6]; Table ii, ARBTH WT MC24 non-transgenic, 1 g ai/ha + 1% MSO) was 100%, the pest or weed control at 5 g/ha ([6]; Table ii, ARBTH WT MC24 non-transgenic, 5 g ai/ha + 1% MSO) was 100% and the pest or weed control at 10 g/ha ([6]; Table ii, ARBTH WT MC24 non-transgenic, 10 g ai/ha + 1% MSO) was 100%. It also gave a pest or weed control at 30 g/ha ([6]; Table ii, ARBTH WT MC24 non-transgenic, 30 g ai/ha + 1% MSO) of 100%, a pest or weed control at 50 g/ha ([6]; Table ii, ARBTH WT MC24 non-transgenic, 50 g ai/ha + 1% MSO) of 100% and a pest or weed control at 80 g/ha ([6]; Table ii, ARBTH WT MC24 non-transgenic, 80 g ai/ha + 1% MSO) of 100%. The pest or weed control at 100 g/ha ([6]; Table ii, ARBTH WT MC24 non-transgenic, 100 g ai/ha + 1% MSO) was 100%, the pest or weed control at 200 g/ha ([6]; Table ii, ARBTH WT MC24 non-transgenic, 200 g ai/ha + 1% MSO) was 100% and the pest or weed control at 5 g/ha ([6]; Table ii, ARBTH_PPO1_S305L_Y426M event O, 5 g ai/ha) was 0%. It also gave a pest or weed control at 10 g/ha ([6]; Table ii, ARBTH_PPO1_S305L_Y426M event O, 10 g ai/ha) of 0%, a pest or weed control at 30 g/ha ([6]; Table ii, ARBTH_PPO1_S305L_Y426M event O, 30 g ai/ha) of 0% and a pest or weed control at 80 g/ha ([6]; Table ii, ARBTH_PPO1_S305L_Y426M event O, 80 g ai/ha) of 95%. It also gave a pest or weed control at 1 g/ha ([6]; Table ii, ARBTH_PPO1_WT event Q, 1 g ai/ha) of 33%, a pest or weed control at 5 g/ha ([6]; Table ii, ARBTH_PPO1_WT event Q, 5 g ai/ha) of 99% and a pest or weed control at 10 g/ha ([6]; Table ii, ARBTH_PPO1_WT event Q, 10 g ai/ha) of 100%. The pest or weed control at 30 g/ha ([6]; Table ii, ARBTH_PPO1_WT event Q, 30 g ai/ha) was 100%, the pest or weed control at 50 g/ha [6, 9] was 0% and the pest or weed control at 100 g/ha [6, 10] was 0%. It also gave a pest or weed control at 50 g/ha ([6]; Table iii, AMATU_PPO2_L397Q_F420V (unnamed lines), 50 g ai/ha) of 60%, a pest or weed control at 100 g/ha ([6]; Table iii, AMATU_PPO2_L397Q_F420V (unnamed lines), 100 g ai/ha) of 80% and a pest or weed control at 100 g/ha ([6]; Table iii, AMATU_PPO2_R128A_F420I (unnamed lines), 100 g ai/ha) of 55%. It also gave a pest or weed control at 50 g/ha ([6]; Table iii, AMATU_PPO2_R128A_F420V (unnamed lines), 50 g ai/ha) of 75%, a pest or weed control at 50 g/ha ([6]; Table iii, ARBTH WT MC 24 (non-transgenic), 50 g ai/ha + 1% MSO) of 100% and a pest or weed control at 100 g/ha ([6]; Table iii, ARBTH WT MC 24 (non-transgenic), 100 g ai/ha + 1% MSO) of 100%. For the same molecule, the “injury (%)” value [6, 9] was 0%, the “injury (%)” value [6, 10] was 0% and the “injury (0-9)” value ([7]; 25 g/ha + 1% MSO) was 7. The “injury (0-9)” value ([7]; 50 g/ha + 1% MSO) was 7, the “injury (0-9)” value ([8]; L397E, F420M Event 2, 25 g/ha + 1% (v/v) MSO) was 0 (No Injury) and the “injury (0-9)” value ([8]; L397E, F420M Event 2, 50 g/ha + 1% (v/v) MSO) was 0 (No Injury). For the same molecule, the “injury (0-9)” value ([8]; L397E, F420M Event 2, 100 g/ha + 1% (v/v) MSO) was 0 (No Injury), the “injury (0-9)” value ([8]; L397E, F420V Event 1, 25 g/ha + 1% (v/v) MSO) was 0 (No Injury) and the “injury (0-9)” value ([8]; L397E, F420V Event 1, 50 g/ha + 1% (v/v) MSO) was 0 (No Injury). For the same molecule, the “injury (0-9)” value ([8]; L397E, F420V Event 1, 100 g/ha + 1% (v/v) MSO) was 0 (No Injury), the “injury (0-9)” value ([8]; L397Q, F420M Event 3, 25 g/ha + 1% (v/v) MSO) was 0 (No Injury) and the “injury (0-9)” value ([8]; L397Q, F420M Event 3, 50 g/ha + 1% (v/v) MSO) was 3. The “injury (0-9)” value ([8]; L397Q, F420M Event 3, 100 g/ha + 1% (v/v) MSO) was 3 and 4.
